Assay results published in patent US20130149331A1, “RHAMNOSE AND FORSSMAN CONJUGATED IMMUNOGENIC AGENTS” (priority 2011, published 2013).

Test system: anti-Rha antibodies in normal human serum
Experiment: Competitive ELISA assay with free monosaccharides, BSA-R1 immobilized
Type: binding
Settings: free monosaccharide 200 mM to 12.5 mM; human serum 1:2000; anti-human IgG detection
Experimental: Competitive ELISA assay. To further verify the specific antibody against Rha epitopes, inhibition ELISA was performed by immobilizing Rha conjugated BSA (BSA-R1) (10 μg ml^−1) on the 96-well plate, and free D-mannose (Man), D-glucose (Glc), N-Acetyl-Dglucosamine (GlcNAc), D-xylose (Xyl), L-fucose (Fuc), N-Acetyl-D-galactosamine (GalNAc), D-galactose (Gal) and L-rhamnose (Rha) were used as competing antigens (2-fold dilutions from 200 mM to 12.5 mM). After coated with BSA-R1 at 4° C. overnight, the solution was depleted and washed by PBST for three times (three minutes each time). Then, the plate was blocked with 5% (w/v) non-fat milk (PBST) in RT for 1.5 h, and rinsed by PBST once. Normal human serum diluted (1:2000) previously, containing different free monosaccharide at different concentration, was added into the 96-well plate with 0.1 mL per well. After 2 h incubation, the plate was rinsed by PBST 3 times. Then 0.1 mL Horseradish Peroxidase (HRP)-conjugated antihuman IgG antibody (1:3000) was added into each well and stayed in RT for 1 h. Finally, after the plates were washed, enzyme substrate tetramethylbenzidine (TMB) was added and allowed to react for 10-20 min before the enzymatic reaction was terminated by adding 1N HCl and the absorbance was read at wavelength of 450 nm in a FlexStation® 3 Microplate Reader (Molecular devices).

C[C@H](O)[C@H](O)[C@@H](O)[C@@H](O)C=O [Rha, L-rhamnose]
competition for antibodies in human serum: pulled down the antibodies
